Results as given in patent publication US9096646B2, “CXCR4 receptor compounds” (priority 2008, dated 2015).
Values joined by “and” are separate entries in the source; they are usually repeats but may differ in a detail not shown here. Equal values may be shown once. Read-outs that look alike come from different tables or passages of the source. Square brackets hold non-standard residues; d marks the D form. Peptide text beside a SMILES is read from it. * marks the point of attachment. ξ: configuration not given here. Biotin = O=C1N[C@H]2[C@H](CS[C@H]2CCCCC(=O)*)N1; ξGly(nC16H33) = CCCCCCCCCCCCCCCCC(N)C(=O)O; Palmitoyl = CCCCCCCCCCCCCCCC(=O)*; NHhexadecyl = CCCCCCCCCCCCCCCCN*; Myristoyl = CCCCCCCCCCCCCC(=O)*

Target: CXCR4 (Homo sapiens, UniProt P61073)
Test: Chemotaxis assay, effect on SDF1-a (CXCL12) induced migration of CCRF-CEM cells
Format: cell-based
Parameters: a human T-cell ALL line that endogenously expresses CXCR4; endogenous in cells; host or cells: CCRF-CEM (human T-cell ALL line)
Conditions: CEM cells; for activity at 1 µM / activity at 0.01 µM / activity at 0.03 µM / activity at 0.1 µM / activity at 0.3 µM / activity at 3 µM: CCRF-CEM
[1] = Table 18, i1 loop, drug conc 1.0 uM, read-out: AUC (% of)
[2] = Table 20, i3 loop, conc 1.0 uM, read-out: AUC (% of vehicle)
[3] = Table 20, i3 loop, conc 1.0 uM, read-out: Max (% of vehicle)
[4] = Table 20, i3 loop, conc 1.0 uM, peak test compound/peak control
[5] = Table 18, i1 loop, drug conc 1.0 uM, read-out: Max (% of)

Sequence of CXCR4 (P61073 whole entry): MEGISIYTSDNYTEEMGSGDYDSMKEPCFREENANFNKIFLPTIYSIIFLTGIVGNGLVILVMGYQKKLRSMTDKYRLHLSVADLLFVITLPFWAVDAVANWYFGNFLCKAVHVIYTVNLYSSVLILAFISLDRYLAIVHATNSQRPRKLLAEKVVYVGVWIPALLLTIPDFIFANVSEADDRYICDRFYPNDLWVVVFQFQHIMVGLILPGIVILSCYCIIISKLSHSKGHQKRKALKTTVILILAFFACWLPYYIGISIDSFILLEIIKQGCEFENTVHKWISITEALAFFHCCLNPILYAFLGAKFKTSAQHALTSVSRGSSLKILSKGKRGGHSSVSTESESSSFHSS

CCCCCCCCCCCCCCCCNC(=O)[C@H](CCCCN)NC(=O)[C@H](CC(=O)O)NC(=O)[C@@H](NC(=O)[C@H](CCSC)NC(=O)[C@H](CO)NC(=O)[C@H](CCCNC(=N)N)NC(=O)[C@H](CC(C)C)NC(=O)[C@H](CCCCN)NC(=O)[C@H](CCCCN)NC(=O)[C@H](CCC(N)=O)NC(=O)[C@H](Cc1ccc(O)cc1)NC(=O)CNC(=O)[C@H](CCSC)NC(C)=O)[C@@H](C)O [Compound 59] (Ac-MGYQKKLRSMTDK-NHhexadecyl)
activity at 1 µM [1]: 51.6%

CCCCCCCCCCCCCCCC(=O)N[C@@H](Cc1cnc[nH]1)C(=O)N[C@@H](CO)C(=O)N[C@@H](CCCCN)C(=O)NCC(=O)N[C@@H](Cc1cnc[nH]1)C(=O)N[C@@H](CCC(N)=O)C(=O)N[C@@H](CCCCN)C(=O)N[C@@H](CCCNC(=N)N)C(=O)N[C@@H](CCCCN)C(=O)N[C@@H](C)C(=O)N[C@@H](CC(C)C)C(=O)N[C@@H](CCCCN)C(=O)N[C@H](C(=O)N[C@H](C(=O)N[C@H](C(=O)N[C@H](C(N)=O)[C@@H](C)CC)C(C)C)[C@@H](C)O)[C@@H](C)O [Compound 100] (Palmitoyl-HSKGHQKRKALKTTVI-NH2)
activity at 1 µM [2]: 49.3%
activity at 1 µM [3]: 49.8%
Peak Test Compound (Table 20, i3 loop, conc 1.0 uM): 0.2 nM
Peak Ratio [4]: 0.04

102: CXCR4 i3 loop compound (IIISKLSHSKGHQKRKALKT) [Compound 102]
AUC (% of vehicle) (Table 20, i3 loop, conc 1.0 uM): 0 % of vehicle
Max (% of vehicle) (Table 20, i3 loop, conc 1.0 uM): 0.24 % of vehicle

CCCCCCCCCCCCCCCC(=O)N[C@@H](CCCCN)C(=O)N[C@@H](CC(C)C)C(=O)N[C@@H](CO)C(=O)N[C@@H](Cc1cnc[nH]1)C(=O)N[C@@H](CO)C(=O)N[C@@H](CCCCN)C(=O)NCC(=O)N[C@@H](Cc1cnc[nH]1)C(=O)N[C@@H](CCC(N)=O)C(=O)N[C@@H](CCCCN)C(=O)N[C@@H](CCCNC(=N)N)C(=O)N[C@@H](CCCCN)C(=O)N[C@@H](C)C(=O)N[C@@H](CC(C)C)C(N)=O [Compound 93] (Palmitoyl-KLSHSKGHQKRKAL-NH2)
activity at 1 µM [2]: 15.9%
activity at 1 µM [3]: 54.8%
Peak Test Compound (Table 20, i3 loop, conc 1.0 uM): 0.2 nM
Peak Ratio [4]: 0.2

CCCCCCCCCCCCCCCCC(NC(=O)CCCCCCCCCCCCC)C(=O)N[C@@H](CCSC)C(=O)NCC(=O)N[C@@H](Cc1ccc(O)cc1)C(=O)N[C@@H](CCC(N)=O)C(=O)N[C@@H](CCCCN)C(=O)N[C@@H](CCCCN)C(=O)N[C@@H](CC(C)C)C(=O)N[C@@H](CCCNC(=N)N)C(=O)N[C@@H](CO)C(=O)N[C@@H](CCSC)C(=O)N[C@H](C(=O)N[C@@H](CC(=O)O)C(=O)N[C@@H](CCCCN)C(=O)N[C@@H](Cc1ccc(O)cc1)C(=O)N[C@@H](CCCNC(=N)N)C(=O)N[C@H](C(N)=O)[C@@H](C)CC)[C@@H](C)O (stereo partly shown) [Compound 48] (Myristoyl-[ξGly(nC16H33)]MGYQKKLRSMTDKYRI-NH2)
activity at 1 µM [1]: 53%
activity at 1 µM [5]: 53.5%

89: CXCR4 i3 loop compound (KLSHSKGHQKRKALKTTVIL) [Compound 89]
AUC (% of vehicle) (Table 20, i3 loop, conc 1.0 uM): 37.55 % of vehicle
Max (% of vehicle) (Table 20, i3 loop, conc 1.0 uM): 59.71 % of vehicle

116: CXCR4 i4 domain compound (GAKFKTSAQHALTSVR) [Compound 116]
AUC (% of vehicle) (Table 21, i4 loop, conc 1.0 uM): 65.28 % of Vehicle
Max (% of vehicle) (Table 21, i4 loop, conc 1.0 uM): 80.48 % of Vehicle

115: CXCR4 i4 domain compound (GAKFKTSAQHALTSVSRGSSLK) [Compound 115]
AUC (% of vehicle) (Table 21, i4 loop, conc 1.0 uM): 77.47 % of Vehicle
Max (% of vehicle) (Table 21, i4 loop, conc 1.0 uM): 92.11 % of Vehicle

108: CXCR4 i4 domain compound (GAKFKTSAQHALTSVSRGSSLKILSKGKRG) [Compound 108]
AUC (% of vehicle) (Table 21, i4 loop, conc 1.0 uM): 89.47 % of Vehicle
Max (% of vehicle) (Table 21, i4 loop, conc 1.0 uM): 83.94 % of Vehicle
Peak Test Comp. (Table 21, i4 loop, conc 1.0 uM): 25 nM

110: CXCR4 i4 domain compound (GAKFKTSAQHALTSVSRGSSLKILSKGKRGGHSCFH) [Compound 110]
AUC (% of vehicle) (Table 21, i4 loop, conc 1.0 uM): 40.98 % of Vehicle
Max (% of vehicle) (Table 21, i4 loop, conc 1.0 uM): 42.08 % of Vehicle

CCCCCCCCCCCCCCCC(=O)N[C@@H](CO)C(=O)NCC(=O)N[C@@H](Cc1ccc(O)cc1)C(=O)N[C@@H](CCC(N)=O)C(=O)N[C@@H](CCCCN)C(=O)N[C@@H](CCCCN)C(=O)N[C@@H](CC(C)C)C(=O)N[C@@H](CCCNC(=N)N)C(=O)N[C@@H](CO)C(=O)N[C@@H](CO)C(=O)N[C@H](C(=O)N[C@@H](CC(=O)O)C(N)=O)[C@@H](C)O [Compound 69] (Palmitoyl-SGYQKKLRSSTD-NH2)
activity at 1 µM [1]: 100%
activity at 1 µM [5]: 93.1%
Peak Test Comp. (Table 18, i1 loop, drug conc 1.0 uM): 25 nM
Peak Ratio (Table 18, i1 loop, drug conc 1.0 uM, peak test comp./peak control): 1

CCCCCCCCCCCCCCCCC(NC(=O)CCCC[C@@H]1SC[C@@H]2NC(=O)N[C@@H]21)C(=O)N[C@@H](CCSC)C(=O)NCC(=O)N[C@@H](Cc1ccc(O)cc1)C(=O)N[C@@H](CCC(N)=O)C(=O)N[C@@H](CCCCN)C(=O)N[C@@H](CCCCN)C(=O)N[C@@H](CC(C)C)C(=O)N[C@@H](CCCNC(=N)N)C(=O)N[C@@H](CO)C(=O)N[C@@H](CCSC)C(=O)N[C@H](C(=O)N[C@@H](CC(=O)O)C(N)=O)[C@@H](C)O (stereo partly shown) [Compound 33] (Biotin-[ξGly(nC16H33)]MGYQKKLRSMTD-NH2)
activity at 1 µM [1]: 54.8%
activity at 1 µM [5]: 76.1%

CCCCCCCCCCCCCCCC(=O)N[C@@H](CCCCN)C(=O)N[C@@H](CC(C)C)C(=O)N[C@@H](CO)C(=O)N[C@@H](Cc1cnc[nH]1)C(=O)N[C@@H](CO)C(=O)N[C@@H](CCCCN)C(=O)NCC(=O)N[C@@H](Cc1cnc[nH]1)C(=O)N[C@@H](CCC(N)=O)C(=O)N[C@@H](CCCCN)C(=O)N[C@@H](CCCNC(=N)N)C(=O)N[C@@H](CCCCN)C(=O)N[C@@H](C)C(N)=O [Compound 94] (Palmitoyl-KLSHSKGHQKRKA-NH2)
activity at 1 µM [2]: 65.3%
activity at 1 µM [3]: 80.5%
Peak Test Compound (Table 20, i3 loop, conc 1.0 uM): 1 nM
Peak Ratio [4]: 1

CCCCCCCCCCCCCCCC(=O)N[C@@H](CCCCN)C(=O)N[C@@H](CC(C)C)C(=O)N[C@@H](CO)C(=O)N[C@@H](Cc1cnc[nH]1)C(=O)N[C@@H](CO)C(=O)N[C@@H](CCCCN)C(=O)NCC(=O)N[C@@H](Cc1cnc[nH]1)C(=O)N[C@@H](CCC(N)=O)C(=O)N[C@@H](CCCCN)C(=O)N[C@@H](CCCNC(=N)N)C(=O)N[C@@H](CCCCN)C(=O)N[C@@H](C)C(=O)N[C@@H](CC(C)C)C(=O)N[C@@H](CCCCN)C(N)=O [Compound 92] (Palmitoyl-KLSHSKGHQKRKALK-NH2)
activity at 0.01 µM (Table 20, i3 loop, conc 0.01 uM, read-out: AUC (% of vehicle)): 158%
activity at 0.01 µM (Table 20, i3 loop, conc 0.01 uM, read-out: Max (% of vehicle)): 156%
activity at 0.03 µM (Table 20, i3 loop, conc 0.03 uM, read-out: AUC (% of vehicle)): 200%
activity at 0.03 µM (Table 20, i3 loop, conc 0.03 uM, read-out: Max (% of vehicle)): 198%
activity at 0.1 µM (Table 20, i3 loop, conc 0.1 uM, read-out: AUC (% of vehicle)): 174%
activity at 0.1 µM (Table 20, i3 loop, conc 0.1 uM, read-out: Max (% of vehicle)): 169%
activity at 0.3 µM (Table 20, i3 loop, conc 0.3 uM, read-out: AUC (% of vehicle)): 180%
activity at 0.3 µM (Table 20, i3 loop, conc 0.3 uM, read-out: Max (% of vehicle)): 165%
activity at 3 µM (Table 20, i3 loop, conc 3.0 uM, read-out: AUC (% of vehicle)): 184%
activity at 3 µM (Table 20, i3 loop, conc 3.0 uM, read-out: Max (% of vehicle)): 176%
Peak Test Compound (Table 20, i3 loop, conc 0.01 uM): 0.16 nM
Peak Ratio (Table 20, i3 loop, conc 0.01 uM, peak test compound/peak control): 0.2
Peak Test Compound (Table 20, i3 loop, conc 0.03 uM): 0.16 nM
Peak Ratio (Table 20, i3 loop, conc 0.03 uM, peak test compound/peak control): 0.2
Peak Test Compound (Table 20, i3 loop, conc 0.1 uM): 0.16 nM
Peak Ratio (Table 20, i3 loop, conc 0.1 uM, peak test compound/peak control): 0.2
Peak Test Compound (Table 20, i3 loop, conc 0.3 uM): 0.16 nM
Peak Ratio (Table 20, i3 loop, conc 0.3 uM, peak test compound/peak control): 0.2
Peak Test Compound (Table 20, i3 loop, conc 1.0 uM): 0.2 nM and 0.16 nM
Peak Ratio [4]: 0.2
Peak Test Compound (Table 20, i3 loop, conc 3.0 uM): 0.8 nM
Peak Ratio (Table 20, i3 loop, conc 3.0 uM, peak test compound/peak control): 1

101: CXCR4 i3 loop compound (SKLSHSKGHQKRKALK) [Compound 101]
AUC (% of vehicle) (Table 20, i3 loop, conc 1.0 uM): 75.55 % of vehicle
Max (% of vehicle) (Table 20, i3 loop, conc 1.0 uM): 74.92 % of vehicle
